Data published in patent US9428456B2, “1-[m-carboxamido(hetero)aryl-methyl]-heterocyclyl-carboxamide derivatives” (Actelion Pharmaceuticals Ltd., priority 2012, dated 2016).

These molecules were tested against CXCR7 (Homo sapiens (Human), UniProt P25106) (assay: PathHunter CHO-K1 CXCR7 b-arrestin assay (agonistic activity)). Details: PathHunter CHO-K1 CXCR7 b-arrestin cell line.
Assay type: cell-based
Method in brief: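 CHO-K1 cells co-expressing ProLink-tagged CXCR7 and EA-fused β-arrestin 2 (enzyme fragment complementation); compounds added in HBSS/20 mM HEPES/0.2% BSA after 3–4 h in OPTIMEM, 90 min at 37 °C. Chemiluminescent β-gal signal read after 1 h detection at room temperature; EC50 reported as geometric mean of several measurements.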

Chain of CXCR7 (P25106 whole entry): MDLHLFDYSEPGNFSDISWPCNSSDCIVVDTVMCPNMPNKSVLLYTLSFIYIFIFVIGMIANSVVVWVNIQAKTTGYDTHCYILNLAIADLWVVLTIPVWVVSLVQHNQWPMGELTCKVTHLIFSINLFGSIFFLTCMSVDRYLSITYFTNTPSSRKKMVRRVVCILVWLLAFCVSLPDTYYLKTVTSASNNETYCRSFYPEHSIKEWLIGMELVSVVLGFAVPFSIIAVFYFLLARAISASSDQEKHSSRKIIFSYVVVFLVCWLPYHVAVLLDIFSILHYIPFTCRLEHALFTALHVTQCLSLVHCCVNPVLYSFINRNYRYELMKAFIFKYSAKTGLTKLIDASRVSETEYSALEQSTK
Chain of CXCR7 (P32121 whole entry partner): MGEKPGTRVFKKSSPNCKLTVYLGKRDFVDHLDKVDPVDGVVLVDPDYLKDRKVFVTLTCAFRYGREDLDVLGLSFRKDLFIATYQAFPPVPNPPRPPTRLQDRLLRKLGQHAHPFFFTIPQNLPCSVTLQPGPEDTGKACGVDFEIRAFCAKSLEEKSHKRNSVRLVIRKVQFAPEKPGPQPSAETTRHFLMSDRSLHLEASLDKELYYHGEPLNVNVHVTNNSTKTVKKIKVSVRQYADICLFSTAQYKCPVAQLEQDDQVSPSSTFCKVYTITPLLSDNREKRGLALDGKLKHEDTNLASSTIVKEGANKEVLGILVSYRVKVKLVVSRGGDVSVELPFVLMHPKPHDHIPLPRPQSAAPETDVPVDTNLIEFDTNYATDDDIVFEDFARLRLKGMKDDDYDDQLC

In order of falling EC50:
1. CCc1cc(CN2CCC(C(=O)NC(C)(C)C)CC2)cc(NC(=O)c2cncc(C)c2)c1 [Example 1.330]  285 nM
2. COc1cc(CN2CCC(C(=O)NC(C)(C)C)CC2)cc(NC(=O)c2cccc(C(F)(F)F)n2)c1 [Example 1.325]  262 nM
3. Cc1cc(C(=O)Nc2cccc(CN3CCC(C(=O)NC(C)(C)C)CC3)c2)c[n+]([O-])c1 [Example 4.022, N-[3-(4-tert-Butylcarbamoyl-piperidin-1-ylmethyl)-phenyl]-5-methyl-1-oxy-nicotinamide]  234 nM
4. CN(C)C/C=C/C(=O)Nc1cccc(CN2CCC(C(=O)NC(C)(C)C)CC2)c1 [Example 1.342]  216 nM
5. CC(C)(C)NC(=O)C1CCN(Cc2cccc(NC(=O)c3ccc(S(C)(=O)=O)cc3)c2)CC1 [Example 1.351]  176 nM
6. CCC(C)(C)NC(=O)C1CCN(Cc2cccc(NC(=O)c3cc(C)c[n+]([O-])c3)c2)CC1 [Example 4.023, N-{3-[4-(1,1-Dimethyl-propylcarbamoyl)-piperidin-1-ylmethyl]-phenyl}-5-methyl-1-oxy-nicotinamide]  173 nM
7. CCc1cc(CN2CCC(C(=O)NC(C)(C)C)CC2)cc(NC(=O)c2cccc(C(F)(F)F)n2)c1 [Example 1.329]  159 nM
8. Cc1nc2cc(C(=O)Nc3cccc(CN4CCC(C(=O)NC(C)(C)C)CC4)c3)ccc2s1 [Example 1.354]  108 nM
9. C=CC(=O)Nc1cccc(CN2CCC(C(=O)NC(C)(C)C)CC2)c1 [Example 1.336]  83 nM
10. CC(C)(C)NC(=O)C1CCN(Cc2cccc(NC(=O)c3cccc(S(C)(=O)=O)c3)c2)CC1 [Example 1.352]  71 nM
11. CC(C)(C)NC(=O)C1CCN(Cc2cccc(NC(=O)c3ccnnc3)c2)CC1 [Example 1.323]  66 nM
12. CCc1cc(CN2CCC(C(=O)NC(C)(C)C)CC2)cc(NC(=O)c2ccc(F)cc2)c1 [Example 1.331]  62 nM
13. Cc1cc(C(=O)Nc2cccc(CN3CCC(C(=O)NC(C)(C)C)CC3)c2)cnn1 [Example 7.001, 6-Methyl-pyridazine-4-carboxylic acid [3-(4-tert-butylcarbamoyl-piperidin-1-ylmethyl)-phenyl]-amide]  62 nM
14. CCc1ccc(NC(=O)c2cncc(C)c2)cc1CN1CCC(C(=O)NC(C)(C)C)CC1 [Example 1.333]  57 nM
15. Cc1cc(C(=O)Nc2cccc(CN3CCC(C(=O)NC(C)(C)C)CC3)c2)c(Cl)nn1 [Example 1.324]  51 nM
16. C[C@@H]1C[C@H](C(=O)NC2CCCCC2)CCN1Cc1cccc(NC(=O)c2cccc(C(F)(F)F)n2)c1 [Example 2.106, 6-Trifluoromethyl-pyridine-2-carboxylic acid [3-((2R,4R)-4-cyclohexylcarbamoyl-2-methyl-piperidin-1-ylmethyl)-phenyl]-amide or 6-trifluoromethyl-pyridine-2-carboxylic acid [3-((2S,4S)-4-cyclohexylcarbamoyl-2-methyl-piperidin-1-ylmethyl)-phenyl]-amide]  49 nM
17. COC(=O)c1cncc(C(=O)Nc2cccc(CN3CCC(C(=O)NC(C)(C)C)CC3)c2)c1 [Example 1.349]  34 nM
18. COC(=O)c1cncc(C(=O)Nc2cccc(CN3CCC(C(=O)NC4CCCCC4)CC3)c2)c1 [Example 1.350]  29 nM
19. CCc1ccc(CN2CCC(C(=O)NC(C)(C)C)CC2)cc1NC(=O)c1cncc(C)c1 [Example 1.327]  28 nM
20. C/C=C/C(=O)Nc1cccc(CN2CCC(C(=O)NC(C)(C)C)CC2)c1 [Example 1.335]  21 nM
21. CCc1ccc(NC(=O)c2ccc(F)cc2)cc1CN1CCC(C(=O)NC(C)(C)C)CC1 [Example 1.334]  17 nM
22. CCc1ccc(NC(=O)c2cccc(C(F)(F)F)n2)cc1CN1CCC(C(=O)NC(C)(C)C)CC1 [Example 1.332]  16 nM
23. CCC(C)(C)NC(=O)C1CCN(Cc2cccc(NC(=O)c3ccc(C(F)(F)F)c[n+]3[O-])c2)CC1 [Example 1.347]  16 nM
24. CCc1ccc(CN2CCC(C(=O)NC(C)(C)C)CC2)cc1NC(=O)c1ccc(F)cc1 [Example 1.328]  8 nM
25. CC(C)(C)NC(=O)C1CCN(Cc2cccc(NC(=O)/C=C/c3ccccc3)c2)CC1 [Example 1.337]  8 nM
26. CC(C)(C)NC(=O)C1CCN(Cc2cccc(NC(=O)c3ccc(C(F)(F)F)c[n+]3[O-])c2)CC1 [Example 1.348]  8 nM
27. COc1cncc(C(=O)Nc2cccc(CN3CCC(C(=O)NC(C)(C)C)CC3)c2)c1 [Example 4.014, N-[3-(4-tert-Butylcarbamoyl-piperidin-1-ylmethyl)-phenyl]-5-methoxy-nicotinmide]  8 nM
28. COc1c(CN2CCC(C(=O)NC(C)(C)C)CC2)cccc1NC(=O)c1ccc(F)cc1 [Example 1.321]  6 nM
29. Cc1cncc(C(=O)Nc2cccc(CN3CCC(C(=O)NC4CCCCC4)CC3)c2)c1 [Example 6.001, N-(3-((4-(cyclohexylcarbamoyl)piperidine-1-yl)d2methyl)phenyl)-5-methylnicotinamide]  5 nM
30. rac-6-Trifluoromethyl-pyridine-2-carboxylic acid [3-((2S*,4S*)-4-cyclohexylcarbamoyl-2-methyl-piperidin-1-ylmethyl)-phenyl]-amide [Example 2.101]  5 nM
31. CC(C)(C)NC(=O)C1CCN(Cc2cccc(NC(=O)c3cccnn3)c2)CC1 [Example 1.322]  4 nM
32. Cc1cncc(C(=O)Nc2cccc(CN3CCC(C(=O)NC4CCCC4)CC3)c2)c1 [Example 6.002, N-(3-((4-(cyclopentylcarbamoyl)piperidin-1-yl)d2methyl)phenyl)-5-methylnicotinamide]  4 nM
33. CC(C)(C)NC(=O)C1CCN(Cc2cccc(NC(=O)c3ccc(N)cn3)c2)CC1 [Example 8.001, 5-Amino-pyridine-2-carboxylic acid [3-(4-tert-butylcarbamoyl-piperidin-1-ylmethyl)-phenyl]-amide]  4 nM
34. CC(C)(C)NC(=O)C1CCN(Cc2cccc(NC(=O)c3ccc4ncsc4c3)c2)CC1 [Example 1.353]  3 nM
35. CC(C)(C)NC(=O)C1CCN(Cc2cccc(NC(=O)c3ccc4snnc4c3)c2)CC1 [Example 1.355]  3 nM
36. C[C@H]1C[C@@H](C(=O)NC2CCCCC2)CCN1Cc1cccc(NC(=O)c2cccc(C(F)(F)F)n2)c1 [Example 2.105, 6-Trifluoromethyl-pyridine-2-carboxylic acid [3-((2S,4S)-4-cyclohexylcarbamoyl-2-methyl-piperidin-1-ylmethyl)-phenyl]-amide or 6-trifluoromethyl-pyridine-2-carboxylic acid [3-((2R,4R)-4-cyclohexylcarbamoyl-2-methyl-piperidin-1-ylmethyl)-phenyl]-amide]  3 nM
37. CC(C)(C)NC(=O)C1CCN(Cc2cccc(NC(=O)c3ccc(Cl)c[n+]3[O-])c2)CC1 [Example 4.024, 5-Chloro-1-oxy-pyridine-2-carboxylic acid [3-(4-tert-butylcarbamoyl-piperidin-1-ylmethyl)-phenyl]-amide]  3 nM
38. CCc1ccc(CN2CCC(C(=O)NC(C)(C)C)CC2)cc1NC(=O)c1cccc(C(F)(F)F)n1 [Example 1.326]  2 nM
39. CCC(C)(C)NC(=O)C1CCN(Cc2cccc(NC(=O)c3ccc(F)c[n+]3[O-])c2)CC1 [Example 4.021, 5-Fluoro-1-oxy-pyridine-2-carboxylic acid {3-[4-(1,1-dimethyl-propylcarbamoyl)-piperidin-1-ylmethyl]-phenyl}amide]  2 nM
40. CCC(C)(C)NC(=O)C1CCN(Cc2cccc(NC(=O)c3ccc(Cl)c[n+]3[O-])c2)CC1 [Example 4.025, 5-Chloro-1-oxy-pyridine-2-carboxylic acid {3-[4-(1,1-dimethyl-propylcarbamoyl)-piperidin-1-ylmethyl]-phenyl}amide]  2 nM
41. CCC(C)(C)NC(=O)C1CCN(Cc2cccc(NC(=O)c3ccc(C(F)(F)F)cn3)c2)CC1 [Example 1.341]  1 nM
42. CCC(C)(C)NC(=O)C1CCN(Cc2cccc(NC(=O)c3ncc(Cl)cc3F)c2)CC1 [Example 1.343]  1 nM
43. CC(C)(C)NC(=O)C1CCN(Cc2cccc(NC(=O)c3cccc(C(F)(F)F)[n+]3[O-])c2)CC1 [Example 1.345]  1 nM
44. CCC(C)(C)NC(=O)C1CCN(Cc2cccc(NC(=O)c3cccc(C(F)(F)F)[n+]3[O-])c2)CC1 [Example 1.346]  1 nM
45. CC(C)(C)NC(=O)C1CCN(Cc2cccc(NC(=O)c3cccc(Br)n3)c2)CC1 [Example 1.344]  0.9 nM
46. CCC(C)(C)NC(=O)C1CCN(Cc2cccc(NC(=O)c3ccc(Cl)cn3)c2)CC1 [Example 1.338]  0.8 nM
47. CC(C)(C)NC(=O)C1CCN(Cc2cccc(NC(=O)c3ncc(Cl)cc3F)c2)CC1 [Example 1.340]  0.7 nM
48. CC(C)(C)NC(=O)C1CCN(Cc2cccc(NC(=O)c3ccc(Cl)cn3)c2)CC1 [Example 1.339]  0.6 nM
49. CC(C)(C)NC(=O)C1CCN(Cc2cccc(NC(=O)c3ccc(F)cn3)c2)CC1 [Example 4.020, 5-Fluoro-pyridine-2-carboxylic acid [3-(4-tert-butylcarbamoyl-piperidin-1-ylmethyl)-phenyl]-amide]  0.6 nM
